Tests used:
[1] = Cytotoxicity against human HEK293T cells assessed as reduction in cell viability incubated for 48 hrs by MTT assay; type: toxicity, cell-based, HEK-293T
MCF7 = assay: Antiproliferative activity against human MCF7 cells assessed as reduction in cell viability incubated for 48 hrs by MTT assay; type: functional, cell-based; conditions: MCF7, 48 h, read-out: IC50
NCI/ADR-RES [2] = assay: Antiproliferative activity against human multidrug resistant NCI-ADR-RES cells overexpressing P-gp assessed as reduction in cell viability incubated for 48 hrs by MTT assay; type: functional, cell-based
NCI/ADR-RES [3] = assay: Reversal fold, ratio of doxorubicin IC50 to doxorubicin IC50 in presence of 10 uM test compound for reversal of P-gp-mediated multidrug resistance in human NCI-ADR-RES cells incubated for 48 hrs by MTT assay; type: functional

Row | SMILES | IC50 at 48 h [1] [µM] | IC50 (MCF7) [µM] | IC50 (NCI/ADR-RES [2]) [µM] | Ratio IC50 (NCI/ADR-RES [3])
1 | C=C1[C@H](O)[C@@H](OC(=O)C(C)(C)C)[C@@H](O)C(C)(C)/C=C/[C@H](C)[C@H](OC(=O)c2ccccc2)[C@@]2(O)C[C@@](C)(O)[C@H](OC(C)=O)[C@@H]2[C@H]1OCC(C)C | 31.7 | 69.9 | > 100 | 0.91
2 | C=C1[C@H](OCC(C)C)C2=C(C[C@@](C)(OC(C)=O)[C@@H]2OC(C)=O)[C@@H](OC(=O)c2ccccc2)[C@@H](C)/C=C/C(C)(C)[C@H](OC(C)=O)[C@H](OC(C)=O)[C@H]1OCC(C)C | > 100 | > 100 | > 100 | 15.81
3 | C=C1[C@H](OC(=O)c2cccc(C)c2)[C@@H](O)[C@@H](O)C(C)(C)/C=C/[C@H](C)[C@H](OC(=O)c2ccccc2)[C@@]2(O)C[C@@](C)(O)[C@H](OC(C)=O)[C@@H]2[C@H]1OCC(C)C | 12 | 21.6 | 33.6 | 8.85
4 | CC(=O)O[C@@H]1[C@@H]2[C@@H](OCC(C)C)C3(CO3)[C@H](O)[C@@H](O)[C@@H](O)C(C)(C)/C=C/[C@H](C)[C@H](OC(=O)c3ccccc3)[C@@]2(O)C[C@@]1(C)O (some centres not stated) | > 100 | > 100 | > 100 | –
5 | C=C1[C@H](O)[C@@H](O)[C@@H](O)C(C)(C)/C=C/[C@H](C)[C@H](OC(=O)c2ccccc2)[C@@]2(O)C[C@@](C)(O)[C@H](OC(C)=O)[C@@H]2[C@H]1OCC(C)C | > 100 | > 100 | > 100 | –
6 | C=C1[C@H](OC(C)=O)[C@@H](OC(C)=O)[C@@H](OC(C)=O)C(C)(C)/C=C/[C@H](C)[C@H](OC(=O)c2ccccc2)[C@@]2(O)C[C@@](C)(OC(=O)c3cccc(C)c3)[C@H](OC(C)=O)[C@@H]2[C@H]1OCC(C)C | 7.22 | > 100 | > 100 | 38.74
7 | C=C1[C@H](OC(C)=O)[C@@H](OC(=O)c2cccc(C)c2)[C@@H](OC(C)=O)C(C)(C)/C=C/[C@H](C)[C@H]2O[C@]3(C)C[C@@]2(OC(=O)c2ccccc2)[C@H]([C@H]3OC(C)=O)[C@H]1OCC(C)C | > 100 | > 100 | > 100 | 8.9
8 | C=C1[C@H](OC(C)=O)[C@@H](OC(C)=O)[C@@H](OC(C)=O)C(C)(C)/C=C/[C@H](C)[C@H](OC(=O)c2ccccc2)[C@@]2(O)C[C@@](C)(O)[C@H](OC(C)=O)[C@@H]2[C@H]1OCC(C)C | 39.3 | > 100 | > 100 | 4.49
9 | C=C1[C@H](OC(C)=O)[C@@H](OC(=O)C(C)(C)C)[C@@H](OC(C)=O)C(C)(C)/C=C/[C@H](C)[C@H](OC(=O)c2ccccc2)[C@@]2(O)C[C@@](C)(OC(C)=O)[C@H](OC(C)=O)[C@@H]2[C@H]1OCC(C)C | 18.9 | > 100 | > 100 | 33.78
10 | C=C1[C@H](OC(C)=O)[C@@H](OC(C)=O)[C@@H](OC(C)=O)C(C)(C)/C=C/[C@H](C)[C@H]2O[C@]3(C)C[C@@]2(OC(=O)c2ccccc2)[C@H]([C@H]3OC(C)=O)[C@H]1OCC(C)C | 13.5 | > 100 | > 100 | 34.3
11 | C=C1[C@H](OC(C)=O)[C@@H](OC(=O)C(C)(C)C)[C@@H](OC(C)=O)C(C)(C)/C=C/[C@H](C)[C@H]2O[C@]3(C)C[C@@]2(OC(=O)c2ccccc2)[C@H]([C@H]3OC(C)=O)[C@H]1OCC(C)C | > 100 | > 100 | > 100 | 21.3
12 | C=C1[C@H](OCC(C)C)[C@@H](OC(C)=O)[C@@H](OC(C)=O)C(C)(C)/C=C/[C@H](C)[C@H](OC(=O)c2ccccc2)[C@@]2(O)C[C@@](C)(OC(C)=O)[C@H](OC(C)=O)[C@@H]2[C@H]1OCC(C)C | > 100 | > 100 | > 100 | 10.64
13 | C=C1[C@H](OC(C)=O)[C@@H](OC(C)=O)[C@@H](O)C(C)(C)/C=C/[C@H](C)[C@H](OC(=O)c2ccccc2)[C@@]2(O)C[C@@](C)(O)[C@H](OC(C)=O)[C@@H]2[C@H]1OCC(C)C | > 100 | > 100 | > 100 | –
14 | C=C1[C@H](OCC(C)C)[C@@H](OC(C)=O)[C@@H](OC(C)=O)C(C)(C)[C@@H]2O[C@H]2[C@H](C)[C@H](OC(=O)c2ccccc2)[C@@]2(O)C[C@@](C)(OC(C)=O)[C@H](OC(C)=O)[C@@H]2[C@H]1OCC(C)C | 48.1 | > 100 | > 100 | 52.31
15 | C=C1[C@H](OC(C)=O)[C@@H](OC(=O)c2cccc(C)c2)[C@@H](OC(C)=O)C(C)(C)/C=C/[C@H](C)[C@H](OC(=O)c2ccccc2)[C@@]2(O)C[C@@](C)(O)[C@H](OC(C)=O)[C@@H]2[C@H]1OCC(C)C | 4.11 | 23.4 | > 100 | 59.71
16 | C=C1[C@H](O)[C@@H](OC(=O)c2cccc(C)c2)[C@@H](O)C(C)(C)/C=C/[C@H](C)[C@H](OC(=O)c2ccccc2)[C@@]2(O)C[C@@](C)(O)[C@H](OC(C)=O)[C@@H]2[C@H]1OCC(C)C | 31.3 | 63.8 | 75.2 | 7.66
17 | C=C1[C@H](OC(C)=O)[C@@H](OC(C)=O)[C@@H](OC(C)=O)C(C)(C)/C=C/[C@H](C)[C@H](OC(=O)c2ccccc2)[C@@]2(O)C[C@@](C)(OC(=O)c3ccncc3)[C@H](OC(C)=O)[C@@H]2[C@H]1OCC(C)C | 19.5 | > 100 | > 100 | 89.33
18 | C=C1[C@H](OC(C)=O)[C@@H](OC(=O)C(C)(C)C)[C@@H](OC(C)=O)C(C)(C)/C=C/[C@H](C)[C@H](OC(=O)c2ccccc2)[C@@]2(O)C[C@@](C)(O)[C@H](OC(C)=O)[C@@H]2[C@H]1OCC(C)C | 52.1 | > 100 | > 100 | 47.77
19 | C=C1[C@H](OC(C)=O)[C@@H](OC(=O)c2cccc(C)c2)[C@@H](OC(C)=O)C(C)(C)/C=C/[C@H](C)[C@H](OC(=O)c2ccccc2)[C@@]2(O)C[C@@](C)(OC(C)=O)[C@H](OC(C)=O)[C@@H]2[C@H]1OCC(C)C | 7.6 | > 100 | > 100 | 30.48
20 | C=C1[C@H](OC(C)=O)[C@@H](OC(C)=O)[C@@H](OC(C)=O)C(C)(C)/C=C/[C@H](C)[C@H](OC(=O)c2ccccc2)[C@@]2(O)C[C@@](C)(OC(C)=O)[C@H](OC(C)=O)[C@@H]2[C@H]1OCC(C)C | 26.1 | 74.3 | > 100 | 12.16

Reference: ChEMBL document CHEMBL5247598 (Eur J Med Chem, 2022)
